Measured values taken from patent EP3778613A1, “THIRD GENERATION DENDRIMER, PROCESS FOR PRODUCTION THEREOF AND USE THEREOF” (Consejo Superior de Investigaciones Científicas (CSIC), priority 2019, dated 2021).

Assays:
[1] = Relaxometric measurements (r1, r2 relaxivity) by MRI at 7 T; conditions: 100 mM phosphate buffer pH 7.4, 300K
Method: Magnetic Resonance Imaging (MRI) experiments were carried out in a BioSpec 70/30 Bruker system using a 7.0 T horizontal-bore superconducting magnet equipped with actively shielded gradients (B-GA12 gradient coil inserted into a B-GA20S gradient system). A quadrature 72 mm inner diameter volume coil was used for in vitro studies.
Relaxometric measurements. Longitudinal (r1) and transverse (r2) relaxivities were determined per concentration of PROXYL units. […] The software used for the calculations of T1 and T2 relaxations was Paravision 6.0 (Bruker Software). r1 relaxivity. Series of axial T1-weighted (T1W) images were acquired for each concentration of PROXYL to obtain T1 maps based on a magnetization saturation experiment and the following parameters: repetition time (TR) = 70-6000 ms, echo time (TE) = 9.2 ms, field of view (FOV) = 2.5 x 2.5 cm, averages (Av) = 1, acquisition matrix (Mtx) = 128 x 128. The T1 values were calculated from the mean signal in the region of interest (ROI) for each repetition time, adjusted to the equation: S = S0 [1 - […]]. r2 relaxivity. T2 maps were calculated from multi spin echo images with a TR of 2 s. 25 echo images were acquired with a TE of 8.02 ms, which was the interval time between echo images acquisitions, too. […] The T2 values were calculated from mean signal in the ROI for each echo image, adjusted according to the equation: S = S0 […]]. […]

[2] = Kinetics of reduction of PROXYL with ascorbate, followed by EPR; type: physicochemical; conditions: nitroxide reduction with sodium ascorbate (10-fold excess per PROXYL unit), 100 mM PB pH 7.4, 300 K
Excerpt: Electronic Paramagnetic Resonance Spectroscopy (EPR) spectra were obtained with an X-Band (9.4 GHz) Bruker ELEXSYS 500 spectrometer equipped with a TE102 microwave cavity, a Bruker variable temperature unit, a field frequency lock system Bruker ER 033 M and equipped with a NMR Gaussmeter Bruker ER 035 M. The modulation amplitude was kept well below the line width, and the microwave power was well below saturation. All samples were previously degassed with Ar. Experiments in aqueous phase were carried out with a quartz flat cell.
Kinetics of reduction of PROXYL with ascorbate. All the solutions were freshly prepared in 100 mM phosphate buffer, pH 7.4. […]
The effect of the dendritic scaffold on nitroxyl rate of reduction was investigated under pseudo-first-order conditions, using a 10-fold excess of sodium ascorbate per PROXYL unit in 100 mM PB pH 7.4 at 300 K. The reduction was monitored by EPR spectroscopy following the decrease of the area under the spectra as a function of time (Figure 4a). As reference, the rate of reduction of 3-carboxy-PROXYL was determined under identical conditions. […] Rate constants were determined by EPR spectroscopy following the decrease of the area under the spectra as a function of time.

[3] = r.t. 7T, reference value for the clinical Gd contrast agent; cited from earlier work

Structure (SMILES) | r1^7T ([1]; longitudinal relaxivity per unit of nitroxyl radical) [mM⁻¹ s⁻¹] | r2^7T ([1]; transverse relaxivity per unit of nitroxyl radical) [mM⁻¹ s⁻¹] | Initial stage k (M^-1s^-1) x 10^3 [2] [M^-1s^-1 x 10^3] | relaxivity [3] [s⁻¹ mM⁻¹]
CC1(C)CC(C(=O)O)C(C)(C)N1[O] (stereo not shown) [3-carboxy PROXYL, 3-carboxy-PROXYL] | 0.20 ± 0.014 | 0.23 ± 0.06 | 11.2 | –
O=C([O-])CN(CCN(CC(=O)[O-])CC(=O)O)CCN(CC(=O)[O-])CC(=O)O.[Gd+3] [Gd-DTPA] | – | – | – | 3.2
